Reference: patent publication US11653689B2, “Probiotic Bifidobacterium breve strain and compositions comprising said strain” (Chr. Hansen A/S, priority 2018, dated 2023)

How the values were obtained:
[1] = Co-incubation of DSM 32356 with acetylsalicylic acid, metabolite analysis
Protocol: The overall aim with this experiment was to explore if Bifidobacterium breve DSM 32356 influenced the degradation of aspirin in vitro.
To cover a wide concentration range of acetylsalicylic acid the following concentrations were used: 20, 10, 5, 2.5, 1.25, 0.625, 0.3125 and 0 mM of acetylsalicylic acid.
The next day the grown culture was reinoculated in fresh MRS with 0.05% CyHCl (100 μL bacteria suspension in 10 mL MRS with 0.05% CyHCl). Six dilution rows were generated by transferring 1 mL of mixed inoculated culture to 10 mL MRS with 0.05% CyHCl. This was repeated 5 times. The bifidobacteria were cultured anaerobically overnight at 37° C. On the day of incubation with acetylsalicyl acid bacterial growth was evaluated by measuring optical density at 600 nm (OD600 nm) and cultures representing late exponential/early stationary phase were selected. […]
Nine mL of each acetylsalicylic acid solution (22.2, 11.1, 5.6, 2.8, 1.39, 0.69 and 0.35 mM) and the control condition (0 mM) were added to different sterile tubes in duplicate. […] After incubation, pH was measured in each vial and the solutions were sterile filtered and frozen at −80° C. until metabolite analysis. […]

[2] = tested on: upper GI bleeding; conditions: in vivo; cited from earlier work
[3] = tested on: Caco-2 cell layer; conditions: cited from earlier work
[4] = tested on: cyclooxygenase (COX); experiment: Serum prostaglandin E2 and thromboxane B2 by LC-MS/MS in trial subjects; assay type: in vivo, human; conditions: fasting serum, visit 2 to 7, 300 mg aspirin daily
Protocol: As exploratory endpoints, post-hoc intervention effects on prostaglandin E2 (PGE2) and thromboxane B2 (TBX2) in serum samples downstream of cyclooxygenase (COX) were studied.
After unblinding, a post-hoc lab analysis was performed on 2 biolipids PGE2 and TXB2 downstream from the COX enzyme in fasting serum samples obtained during visit 2 to visit 7. […] J. Chromatogr. […] Ambiotis were kept blinded for intervention during analyses and analyses were performed in single measurements.

CC(=O)Oc1ccccc1C(=O)O [acetylsalicylic acid (aspirin), acetylsalicylic acid]
conversion of acetylsalicylic acid to salicylic acid ([1]; 24 hours, 37° C., with DSM 32356 or acid-adjusted to pH 4.5, MRS): most of the acetylsalicylic acid was converted to salicylic acid | growth of DSM 32356 ([1]; increasing concentrations of aspirin): inhibited bacterial growth | increased risk of upper GI bleeding [2]: 2- to 4 fold | ZO-1 expression [3]: decreased | flux of fluorescein isothiocyanate-conjugated dextran [3]: increases flux | transepithelial electrical resistance (TEER) [3]: decreased | serum PGE2 concentrations [4]: robust inhibition | serum TXB2 concentrations [4]: robust inhibition
